Experimental data as given in patent US20240308998A1, “PYRROLOPYRIDONE DERIVATIVES USEFUL IN THE TREATMENT OF CANCER” (Tay Therapeutics Limited, priority 2021, published 2024).
Where a name gives a salt, the structure may show the parent alone.

What was measured:
Mouse plasma stability = type: in vitro ADME; conditions: 10 μM in mouse plasma, 37° C.
Procedure: The stock solution of compound (10 or 50 mM) was prepared in DMSO. From the stock solution, a working solution of compound (500 uM) was prepared in DMSO (100%). To 735 μL of mouse plasma, 15 μL of working solution of compound was added—resulting in a final concentration of 10 μM (2% DMSO) for the compound. The sample was then incubated at 37° C. Aliquot was withdrawn at time-points—0, 15, 30, 60, 90 and 120 mins. The reaction was stopped by using chilled acetonitrile containing internal standard (IS). The samples were centrifuged and the supernatants analyzed using LC-MS/MS. The percent remaining of the compound at each time point was calculated with respect to the control sample (0 min time-point).

[1] = Intrinsic clearance in mouse liver microsomes; type: in vitro ADME; conditions: 1 uM, NADPH
Procedure: (§1) A 50 mM stock solution (in DMSO) was prepared for the compound. From the stock solution, a working solution of 0.5 mM was prepared by diluting the compound in DMSO. This concentration of working solution was prepared considering a final concentration of 1 uM with 0.1% DMSO. The compound (1 uL of working solution) was spiked in PBS with pH 7.4 (22 uL) at a concentration of 1 uM. Subsequently, 110 uL of 10 mM NADPH was added (as a co-factor). The sample was incubated at 37° C. for 15 min. Following this, pre-warmed mouse liver microsomes (27.5 uL; final protein conc. 0.5 mg/mL) were added. The samples were then incubated at 37° C. Aliquots of samples were withdrawn at 0, 5, 15, 30, 45 and 60 min. The reaction was stopped by using chilled acetonitrile containing internal standard. The samples were centrifuged and the supernatants analysed by LC-MS/MS. The percent compound remaining at each time point was calculated with respect to that of the 0 min sample. The data were then analysed to calculate half-life and intrinsic clearance (CLint). Note that control samples were run without NADPH and blank samples were prepared using DMSO without the test compound.

BRD4 BD1 = target: T1, BRD4 BD1 (Homo sapiens, UniProt O60885); test: NanoBRET bromodomain assay, BRD4 BD1; type: cell-based; conditions: HEK293 cells transfected with NanoLuc-BRD4-BD1
T1 construct: HEK293 cells were transfected using NanoLuc-BRD4-BD1 or NanoLuc-BRD4-BD2 fusion vectors; host or cells: HEK293
Method in brief: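 Transfected HEK293 cells expressing NanoLuc-BRD4-BD1 were incubated with 1x tracer and serially diluted compound for 2 h at 37 °C, then given Nano-Glo substrate plus extracellular NanoLuc inhibitor. Donor 450 nm and acceptor 610 nm emissions were converted to background-corrected mBU, and IC50 was derived by nonlinear regression.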

[2] = Intrinsic clearance in rat liver microsomes; type: in vitro ADME; conditions: pH 7.4, NADPH, read-out: Rat Microsomal Stability T½
Procedure: as §1, with “pre-warmed rat” for “pre-warmed mouse”, “calculate half-life.” for “calculate half-life and intrinsic clearance (CLint).”, “test Compound.” for “test compound.”

BRD4 BD2 = target: T2, BRD4 BD2 (Homo sapiens, UniProt O60885); test: NanoBRET bromodomain assay, BRD4 BD2; type: cell-based; conditions: for Fold selectivity BRD4 BD1/BD2: IC50 BD1/IC50 BD2; for IC50: NanoBRET, HEK293 cells transfected with NanoLuc-BRD4-BD2
T2 construct: HEK293 cells were transfected using NanoLuc-BRD4-BD1 or NanoLuc-BRD4-BD2 fusion vectors; host or cells: HEK293
Method in brief: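 HEK293 cells transfected with NanoLuc-BRD4-BD2 fusion for 20-24 h, then treated with compound plus 1x tracer for 2 h at 37° C. Donor 450 nm / acceptor 610 nm emissions converted to background-corrected mBU; IC50 by nonlinear regression; selectivity as IC50 BD1/IC50 BD2.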

[3] = Balb/c mouse pharmacokinetics after oral (PO) dosing; type: in vivo; conditions: male, plasma
Procedure: Compounds were formulated in 5% DMSO, 40% PEG-400, 55% Milli-Q water at a concentration of 0.5 mg/mL for 5 mg/kg and 3 mg/mL for 30 mg/kg PO dosing. […] Blood was sampled at various timepoints and plasma isolated. 10 μL of plasma with 5 μL of blank Balb/c mouse plasma were added to 200 μL of acetonitrile containing IS mixture. The samples were vortexed for 30 s. After centrifugation at 4 degree Celsius, 3900 rpm for 15 min, the supernatant was diluted 3 times with water. 20 μL of diluted supernatant was injected into the LC/MS/MS system for quantitative analysis and concentration of analyte determined by comparison with matrix matched standard curve. WinNonlin (Phoenix™, version 8.3) or other similar software was used for pharmacokinetic calculations.

Row | SMILES | Mouse Plasma Stability % remaining at 120 minutes (Mouse plasma stability) [%] | Mouse Microsomal Stability (intrinsic clearance) [1] [ml/min/g liver] | IC50 (BRD4 BD1) [nM] | half-life at 1 uM [2] [h] | Fold selectivity BRD4 BD1/BD2 (BRD4 BD2) | IC50 (BRD4 BD2) [nM] | Cmax ([3]; 5 mg/kg, Casette) [ng/mL] | bioavailability ([3]; 5 mg/kg, Casette) [%] | Cmax ([3]; 30 mg/kg, Individual) [ng/mL] | bioavailability ([3]; 30 mg/kg, Individual) [%]
1 | Cc1cc(F)cc(C)c1Oc1c(-c2cn(C)c(=O)c3[nH]c(C(=O)NC(C)(C)C)cc23)ccn(C)c1=O [Comparative Example B, reference compound] | 100 | 5.1 | – | – | – | – | – | – | – | –
2 | Cc1cc(-c2cc3c(-c4cc(=O)n(C)cc4Oc4c(C)cccc4C)cn(C)c(=O)c3[nH]2)n(C)n1 [Example 7, 2-(1,3-dimethyl-1H-pyrazol-5-yl)-4-(5-(2,6-dimethylphenoxy)-1-methyl-2-oxo-1,2-dihydropyridin-4-yl)-6-methyl-1,6-dihydro-7H-pyrrolo[2,3-c] pyridin-7-one] | 84 | – | > 1000 | > 1 | xxx (Fold >200) | ≤ 50 | – | – | – | –
3 | Cc1cccc(C)c1Oc1cn(C)c(=O)cc1-c1cn(C)c(=O)c2[nH]c(C3=NCCN3)cc12 [Example 4, 2-(4,5-dihydro-1H-imidazol-2-yl)-4-(5-(2,6-dimethylphenoxy)-1-methyl-2-oxo-1,2-dihydropyridin-4-yl)-6-methyl-1,6-dihydro-7H-pyrrolo[2,3-c]pyridin-7-one] | – | 0.6 | > 1000 | – | x (Fold >2 and ≤50) | 200 to 1000 | – | – | – | –
4 | Cc1cccc(C)c1Oc1cn(C)c(=O)cc1-c1cn(C)c(=O)c2[nH]c(-c3ccccc3F)cc12 [Example 14, 4-(5-(2,6-dimethylphenoxy)-1-methyl-2-oxo-1,2-dihydropyridin-4-yl)-2-(2-fluorophenyl)-6-methyl-1,6-dihydro-7H-pyrrolo[2,3-c] pyridin-7-one] | 99 | – | > 1000 | > 1 | xxx (Fold >200) | ≤ 50 | – | – | – | –
5 | Cc1cc(-c2cc3c(-c4cc(=O)n(C)cc4Oc4c(C)cccc4C)cn(C)c(=O)c3[nH]2)cc(C)n1 [Example 17, 4-(5-(2,6-dimethylphenoxy)-1-methyl-2-oxo-1,2-dihydropyridin-4-yl)-2-(2,6-dimethylpyridin-4-yl)-6-methyl-1,6-dihydro-7H-pyrrolo[2,3-c] pyridin-7-one.TFA] | 42 | – | > 1000 | > 1 | xxx (Fold >200) | ≤ 50 | – | – | – | –
6 | Cc1cccc(C)c1Oc1cn(C)c(=O)cc1-c1cn(C)c(=O)c2[nH]c(-c3cn(C(C)C)nc3C#N)cc12 [Example 49, 4-{4-[5-(2,6-dimethylphenoxy)-1-methyl-2-oxopyridin-4-yl]-6-methyl-7-oxo-1H-pyrrolo[2,3-c]pyridin-2-yl}-1-isopropylpyrazole-3-carbonitrile] | – | – | 50 to 500 | – | xx (Fold >50 and ≤200) | ≤ 50 | 19.3 | 7.81 | – | –
7 | Cc1cc(-c2cc3c(-c4cc(=O)n(C)cc4-c4ccccc4)cn(C)c(=O)c3[nH]2)cc(C)n1 [Example 62, 4-[2-(2,6-dimethylpyridin-4-yl)-6-methyl-7-oxo-1H-pyrrolo[2,3-c]pyridin-4-yl]-1-methyl-5-phenylpyridin-2-one] | – | – | 50 to 500 | – | xxx (Fold >200) | ≤ 50 | 1290 | 88.7 | – | –
8 | Cc1cccc(C)c1Oc1cn(C)c(=O)cc1-c1cn(C)c(=O)c2[nH]c(-c3cn(C4COC4)nc3C)cc12 [Example 64, 4-(5-(2,6-dimethylphenoxy)-1-methyl-2-oxo-1,2-dihydropyridin-4-yl)-6-methyl-2-(3-methyl-1-(oxetan-3-yl)-1H-pyrazol-4-yl)-1,6-dihydro-7H-pyrrolo[2,3-c]pyridin-7-one] | – | – | 500 to 1000 | – | xx (Fold >50 and ≤200) | ≤ 50 | – | – | 1010 | 12.5
9 | Cn1cc(-c2ccccc2)c(-c2cn(C)c(=O)c3[nH]c(-c4ccccc4)cc23)cc1=O [Example 63, 1-methyl-4-{6-methyl-7-oxo-2-phenyl-1H-pyrrolo[2,3-c]pyridin-4-yl}-5-phenylpyridin-2-one] | – | – | > 1000 | – | xxx (Fold >200) | ≤ 50 | 1590 | 86.5 | – | –
10 | Cc1cccc(C)c1Oc1cn(C)c(=O)cc1-c1cn(C)c(=O)c2[nH]c(-c3ccc(=O)n(C)c3)cc12 [Example 51, 5-(2,6-dimethylphenoxy)-1-methyl-4-[6-methyl-2-(1-methyl-6-oxopyridin-3-yl)-7-oxo-1H-pyrrolo[2,3-c]pyridin-4-yl]pyridin-2-one] | – | – | > 1000 | – | xx (Fold >50 and ≤200) | 50 to 200 | 24.4 | 6.83 | – | –
11 | Cc1cccc(C)c1Oc1cn(C)c(=O)cc1-c1cn(C)c(=O)c2[nH]c(-c3ccc(F)cc3F)cc12 [Example 47, 2-(2,4-difluorophenyl)-4-(5-(2,6-dimethylphenoxy)-1-methyl-2-oxo-1,2-dihydropyridin-4-yl)-6-methyl-1,6-dihydro-7H-pyrrolo[2,3-c] pyridin-7-one] | – | – | > 1000 | – | xxx (Fold >200) | ≤ 50 | 718 | 100 | – | –
12 | Cc1cccc(C)c1Oc1cn(C)c(=O)cc1-c1cn(C)c(=O)c2[nH]c(-c3cnn(C(C)C)c3)cc12 [Example 11, 4-(5-(2,6-dimethylphenoxy)-1-methyl-2-oxo-1,2-dihydropyridin-4-yl)-2-(1-isopropyl-1H-pyrazol-4-yl)-6-methyl-1,6-dihydro-7H-pyrrolo[2,3-c] pyridin-7-one] | 98 | – | 50 to 500 | > 1 | xx (Fold >50 and ≤200) | ≤ 50 | – | – | – | –
13 | Cc1cnc(-c2cc3c(-c4cc(=O)n(C)cc4-c4ccccc4)cn(C)c(=O)c3[nH]2)[nH]1 [Example 5, 6-methyl-2-(5-methyl-1H-imidazol-2-yl)-4-(1-methyl-2-oxo-5-phenyl-1,2-dihydropyridin-4-yl)-1,6-dihydro-7H-pyrrolo [2,3-c] pyridin-7-one] | – | 0.6 | > 1000 | – | xx (Fold >50 and ≤200) | 50 to 200 | – | – | – | –
14 | Cc1cccc(C)c1Oc1cn(C)c(=O)cc1-c1cn(C)c(=O)c2[nH]c(-c3cccc(F)c3F)cc12 [Example 50, 4-[2-(2,3-difluorophenyl)-6-methyl-7-oxo-1H-pyrrolo[2,3-c]pyridin-4-yl]-5-(2,6-dimethylphenoxy)-1-methylpyridin-2-one] | – | – | > 1000 | – | xxx (Fold >200) | ≤ 50 | 293 | 73 | – | –
